Data published in patent publication US20180065940A1, “METAL-BINDING COMPOUNDS, HETEROLOGOUS PRODUCTION AND USES THEREOF” (The Research Foundation for The State University of New York, priority 2015, published 2018).

Legend:
[1] = Gold-binding assay (LC-MS); conditions: 1 mM Au(III), crude extract 2-5 μM, 2 hours at 22° C.
Description: Gold-binding Assay To test Ybt or analog gold binding capability, HAuCl4 was used to generate a solution of 1 mM Au(III) in de-ionized water. To this solution, crude extract of Ybt or analog (from samples prepared without FeCl3 addition) was added at a final concentration of 2-5 μM. After incubation for 2 hours at 22° C., the solution was analyzed by LC-MS.

[2] = Rust removal experiments (1,10-phenanthroline assay)
Description: Rust Removal Experiments. A rusted carbon steel tube was machine cut into U-shaped pieces (through the University at Buffalo School of Engineering and Applied Sciences Engineering Machine Shop) and each piece, after cleaning with acetone and rinsing with DI water, immersed in 10 mL Millipore water. Samples were then mixed with 250 μL of methanol or final extracts (about 0.2 mg of Ybt) derived from the larger-scale negative control or Ybt production cultures. Samples were then allowed to incubate at 30° C. with shaking for 2 hours.
Rust removal was quantified through a modification of the 1,10-phenanthroline assay to enable detection using a 96-well plate format. To each well, 40 μL of 0.3% (wt/vol) 1,10-phenanthroline, 40 μL of 1% (wt/vol) hydroxylamine hydrochloride, and 40 μL of 0.1 M ammonium acetate were mixed. […] Absorbance was measured using a microplate reader at a wavelength of 510 nm with concentration measurements determined from a calibration curve of Fe^3+ (Sigma-Aldrich).
To assess total rust removal, metal samples recovered after incubation were washed with water and immersed in a solution of 1% (wt/vol) oxalic acid for 30 minute to remove the remaining rust on the metal surface. Upon quantifying the amount of Fe^3+ removed using the 96-well plate method introduced above, percent rust removal was calculated using the following equation: […]

[3] = Copper removal experiments with Ybt-modified XAD beads (Zincon assay); conditions: fresh beads in three successive applications
Description: (§1) Copper Removal Experiments. Copper and zinc removal assessment was completed using the Zincon assay (Sabel et al. 2010. Anal Biochem 397:218-226). Briefly, 40 μL samples (diluted if necessary to keep concentrations less than 4 ppm) were added to 200 μL of borate buffer (65.8 mM; pH=9), and the assay was initiated by adding 10 μL of Zincon solution (1.6 mM). After a five-minute incubation at 20° C., absorbance at 610 nm was measured. Standard curves for Zn and Cu were made using pure salts (Sigma-Aldrich) to allow quantification. The initial measurement provides total metal concentration (zinc and copper together) while the second measurement allows determination of the copper concentration. By subtracting the second reading from the first, zinc concentration is determined. […]
(§2) To test copper removal, 800 μL of copper solution was added to 40 mg of Ybt-modified XAD beads (or controls) and incubated at 30° C. with shaking (for sheep blood and 50% FBS RPMI samples, this temperature was 22° C.). […] The copper content of the original mixture solution and the liquid resulting from the bead washing steps was measured using the Zincon assay described above. […] The removal ability was calculated using the following equation: […]

[4] = Zinc removal with Ybt-modified XAD beads (Zincon assay); conditions: FIG. 14D
Description: as §1, §2

[5] = Packed-bed removal from zinc and copper solutions; conditions: pH 6.5
Description: Copper removal experiments: To test copper removal, 10 grams of each resin (XAD, Chelex 100, and Ybt-XAD) were packed into a 2.5×10 cm glass chromatography column (Bio-Rad). The column was equilibrated with 10 bed volumes of Millipore water before loading the metal solution. The metal solution (˜5 ppm zinc and ˜1 ppm copper; pH adjusted with dilute HCl or NaOH) was pumped (LMI Milton Roy dosing pump) into the column with a continuous flow rate of 1 L/hr. Samples were collected every 30 min. The percent copper or zinc removal was calculated using the following formula: [(Ci−Cf)/Ci]×100, where Ci is the initial copper (or zinc) concentration and Cf is the final concentration. Average selectivity was defined as the ratio of average copper removal (%) to the average zinc removal (%) over the course of the experiment.

[6] = pH 2 (10 mM HCl)
Description: Based upon the pH removal profiles for Ybt-XAD, the column was tested for regeneration (FIG. 27). […] To select the degree of pH reduction, the Ybt compound was tested for degradation over log-fold differences in HCl concentrations (FIG. 31).

RAW264.7 cells = test system: RAW264.7 cells
Description: Biological Interaction Assays. Cytotoxicity resulting from Ybt samples was determined by the 3-(4, 5-dimethylthiazol-2-yl)-diphenyltetrazolium bromide (MTT) colorimetric assay. Three distinct cell lines (RAW264.7 [macrophage; provided by Dr. Terry Connell, Department of Microbiology and Immunology, University at Buffalo], HeLa [epithelial; provided by Dr. Stelios Andreadis, Department of Chemical and Biological Engineering, University of Buffalo], and NIH3T3 [fibroblast; ATCC]) were cultured in T75 flasks at 37° C./5% CO2. RAW264.7 cells were maintained in medium prepared as follows: 50 mL of FBS (heat inactivated), 5 mL of 100 mM MEM sodium pyruvate, 5 mL of 1 M HEPES buffer, 5 mL of penicillin/streptomycin solution, and 1.25 g of D-(+)-glucose added to 500 mL RPMI-1640 and filter sterilized. HeLa and NIH3T3 cells were maintained in Dulbecco's Modified Eagle Medium (DMEM; Gibco BRL, Grand Island, N.Y.) supplemented with 10% (v/v) FBS (GIBCO) and 1% (v/v) Antibiotic-Antimycotic (A/A; Gibco). […]

[7] = test system: red blood cell (RBC) membranes; conditions: 0.03 mg/mL Ybt or 50 mg/mL Ybt-XAD beads in PBS, 37° C.
Description: To assess potential disruption of red blood cell (RBC) membranes by Ybt samples, a hemolysis assay was modified from a protocol previously described (Jones et al. 2014. Proc Natl Acad Sci USA 111:12360-12365). Briefly, a 5% RBC solution was prepared by washing sheep blood (HemoStat Laboratories) with PBS until the supernatant became clear. Next, 100 μL of purified 5% RBC solution was incubated with 900 μL of 0.03 mg/mL crude extract Ybt samples (or controls) or 50 mg/mL Ybt-complexed XAD beads (or controls) in PBS over time at 37° C. Triton-X 100 (1% solution) was used to construct a blood lysis standard curve by altering the amount of blood added to each respective sample. For example, for 50 and 100% lysis, 50 and 100 μL of purified 5% RBC solution was mixed with 1% Triton-X (to 1 mL). PBS was used to generate negative controls. Samples were centrifuged and hemolysis quantified by measuring supernatant at 541 nm and comparing to the % blood lysis standard curve.

CC(C)(C1=N[C@@](C)(C(=O)O)CS1)[C@H](O)[C@@H]1CSC([C@H]2CSC(c3ccccc3O)=N2)N1 (stereo partly drawn) [Ybt, yersiniabactin]
gold binding / complex formation [1]: lack of complexation
rust removed, of total rust ([2]; about 0.2 mg of Ybt, 30° C., 2 hours): about 20%
rust removed relative to the commercial control ([2]; relative to commercial product Rust-Oleum): about 40%
copper removal after repeated extractions [3]: ~100%
zinc removal capability [4]: no discernible capability to remove zinc
zinc binding in fixed bed [5]: not observed
stability (degradation over time) [6]: stability
immunogenicity via NO production from macrophage cells (RAW264.7 cells): minimal concerns
RBC hemolysis [7]: minimal concerns
